The text below walks through data of US20190374468A1, “Liposomal Formulations for Allosteric AKT Inhibitors” (Merck Sharp & Dohme Corp., priority 2013, published 2019).

SMILES strings stand for the structures.

The nature of series [1]: Aqueous solubility of Compound B. In kind it is physicochemical.
Series [2] can be described thus: Visual evaluation of Compound B in the presence of sulfate salts. The series is classed as physicochemical. The settings on record: 1 mg/mL in pH 3.0 citrate buffer with 0.1-1.0 M (NH4)2SO4, 20° C. The method, then:
The behavior of Compound B in the presence of sulfate salts was further evaluated visually. Vials containing 1 mg/mL Compound B in pH 3.0 citrate buffer with 0.1 M, 0.25 M, 0.5 M, and 1.0 M, respectively, of (NH4)2SO4 were visually observed at 20° C. […] Solutions became increasingly more viscous with a white/opaque appearance with increasing amounts of ammonium sulfate.

Consider `Cl.NC1(c2ccc(-c3nc4ccn5c(=O)[nH]nc5c4cc3-c3ccccc3)cc2)CCC1` [Compound B, 8-[4-(1-aminocyclobutyl)phenyl]-9-phenyl[1,2,4]triazolo[3,4-f]-1,6-naphthyridin-3-ol], for which the solubility in series [1] (0.1 M carbonate buffer, aqueous buffer, pH 8.6, 0.1M Carbonate) amounted to 0.7 µg/mL; in series [1] (0.1 M citrate buffer, aqueous buffer, pH 2.8, 0.1M Citrate) it was 10600 µg/mL; in series [1] (0.1 M citrate buffer, aqueous buffer, pH 3.9, 0.1M Citrate) it was 170 µg/mL; in series [1] (0.1 M citrate buffer, aqueous buffer, pH 5.0, 0.1M Citrate), 59 µg/mL; in series [1] (0.1 M phosphate buffer, aqueous buffer, pH 5.6, 0.1M Phosphate), 140 µg/mL; in series [1] (0.1 M phosphate buffer, aqueous buffer, pH 6.9, 0.1M Phosphate), 36 µg/mL. Moreover, the solubility is 4230 µg/mL in series [1] (simulated gastric fluid, pH 2.1, 0.01N HCl) and 7460 µg/mL in series [1] (un-buffered aqueous medium, water, pH 4.1, Un-buffered). The “time to flocculation after addition of ammonium sulfate” value in series [2] is less than 30 min.
